Entries after “also recorded” stand apart in the source; their conditions may differ.
What was measured:
[1] = DPPH radical-scavenging activity (Ex. 65); type: biochemical; details: iron-III reduction and DPPH radical scavenging (FIG. 49, 50); 100° C., 0-5 hours
Protocol: 1 mg 1,1-Diphenyl-2-picrylhydrazyl radical (DPPH)/ml ethanol, dilution to assay concentration were prepared in ethanol (40 μg/mL); Calibration samples were prepared with Ascorbic acid in a concentration of 0-10 μg/mL; as a negative control sample, water was used.
Samples in aqueous solution were used as such or diluted with water.
A 0.1 ml sample (or calibration standard) was mixed with 3.9 ml solution of DPPH (100 μMolar) and reacted while protected from light at room temperature for 30 min. Absorbance was determined at 517 nm against ethanol.
10 mM of amino acid and/or 10 mM sugar were dissolved in 10 ml 0.1 mM KH2PO4-buffer, pH=7.8.
The samples were kept at 100° C. in sealed glass vials (Pyrex 15 ml with screw caps) for 0 (before reaction), 2.5 or 5.0 hours. Thereafter the samples were transferred to an ice water bath and cooled down to room temperature. These samples were diluted 1:10 and used for the test assay for anti-oxidant potential.

[2] = Sensory evaluation of GSGs and SGs, Thaumatin, NHDC and combinations (Ex. 255); parameters: species or system human; details: in water; 4.5 ppm Thaumatin and/or 50 ppm GSGs and SGs, NHDC 1-5 ppm
Protocol: 4.5 ppm Thaumatin (equivalent to 10 ppm EPCalin) was dissolved in water. Increasing amounts of NHDC (1-5 ppm) were added to the solution and the sensory properties were evaluated.
50 ppm (GSGs and SGs) were dissolved in water. Increasing amounts of NHDC (1-5 ppm) were added to the solution and the sensory properties were evaluated.
50 ppm (GSGs and SGs) and 4.5 ppm Thaumatin (equivalent to 10 ppm EPCalin) were dissolved in water. Increasing amounts of NHDC (1-5 ppm) were added to the solution and the sensory properties were evaluated.
Sweetness intensity was rated on 5-point scale

[3] = Stevia-derived MRPs with NHDC and Thaumatin, also in Redbull sugarfree (Ex. 261); parameters: species or system human; details: 150 μl sample in 100 ml Redbull sugar free
Protocol: 150 μl of the each sample was added to 100 ml Redbull sugar free and mixed. The taste profiles of the samples were compared. As a control, a RedBull sugar free sample without the addition of Steviaroma was used.
Before tasting the tasters discussed the upcoming series of samples and tasted samples with predetermined attributes with varying intensities to find a commonality in description. Four trained tasters blind taste tested independently all samples of a series. They were allowed to re-taste and made notes for the sensory attributes perceived including the relative intensity.
In the last step the attributes noted were discussed openly to find an acceptable description. In case that more than 1 taster disagreed with the description, the tasting was repeated.

[4] = Kinetics of reaction in dependence of pH-conditions (degradation of Phe and Reb-A, Gluc, Xyl, Suc by HPLC/MS)
Protocol: Quantitative evaluation was performed using external standardization.
Kinetics of Reaction in Dependence of pH-Conditions

C=C1C[C@@]23CC[C@H]4[C@@](C)(CCC[C@@]4(C)C(=O)O[C@@H]4O[C@H](CO)[C@@H](O)[C@H](O)[C@H]4O)[C@@H]2CC[C@]1(O[C@@H]1O[C@H](CO)[C@@H](O)[C@H](O[C@@H]2O[C@H](CO)[C@@H](O)[C@H](O)[C@H]2O)[C@H]1O[C@@H]1O[C@H](CO)[C@@H](O)[C@H](O)[C@H]1O)C3 [Reb-A, Rebaudioside A]
anti-oxidant properties [1]: substantial anti-oxidant properties

COc1ccc(CCC(=O)c2c(O)cc(O[C@@H]3O[C@H](CO)[C@@H](O)[C@H](O)[C@H]3O[C@@H]3O[C@@H](C)[C@H](O)[C@@H](O)[C@H]3O)cc2O)cc1O [NHDC, Neohesperidin dihydrochalcone]
sensory properties of combinations with NHDC [2]: long lasting lingering; also recorded: boosts the lingering | taste profile in sugarfree beverage [3]: improved the mouth-feel and harmony of taste impression yielding a substantially improved taste profile

O=C(O)[C@H](Cc1ccccc1)NCC(=O)[C@@H](O)[C@H](O)[C@H](O)CO [MRI (Phe-Glu)]
% formation from degraded Phe ([4]; pH = 5.5): <0.10% | % formation from degraded Phe ([4]; pH = 7.0): 0.54% | % formation from degraded Phe ([4]; pH = 8.5): 0.84%

From patent US11369127B2, “Sweetener and flavor compositions, methods of making and methods of use thereof” (EPC Natural Products Co., Ltd., priority 2018, dated 2022)
